The values that follow are results of earlier work, collected in US20080008798A1, “Salts of astaxathin esters” (priority 2002, published 2008).

The conditions of series [1]: per week; storage of the manufactured feed under ambient conditions.
The subject of the next series is flesh pigmentation. Particulars: feeding non-formulated astaxanthin.

As to `CC1=C(/C=C/C(C)=C/C=C/C(C)=C/C=C/C=C(C)/C=C/C=C(C)/C=C/C2=C(C)C(=O)[C@@H](O)CC2(C)C)C(C)(C)C[C@H](O)C1=O` [astaxanthin], the “contained pigment lost through degradation during storage” value in series [1] is reported as “about 2%”. For the same compound, the pigmentation effect result with flesh pigmentation is listed as “almost no pigmentation effect”.
